Results reported in the PolyMetriX glass transition set.
± gives the standard deviation of the reports.

Structure (SMILES) | glass transition temperature [°C]
*c1ccc(Oc2ccc(Sc3ccc(Oc4ccc(-c5ccc(*)s5)cc4C(F)(F)F)cc3)cc2)c(C(F)(F)F)c1 (repeat unit) | 142.00
*CC(*)OC(=O)C1(F)C(F)(F)C(F)(F)C(F)(F)C(F)(F)C1(F)F (repeat unit) | 54.00
*Oc1c(OC)cc(-c2cc(OC)c(OC(=O)CCCCCCCCC(*)=O)c(OC)c2)cc1OC (repeat unit) | 94.00
*c1ccc(Oc2ccc(-c3c(-c4ccccc4)c(-c4ccc(-c5nc6ccccc6c(*)c5-c5ccccc5)cc4)nc4ccccc34)cc2)cc1 (repeat unit) | 273.00
*c1ccc(-c2cnc3ccc(S(=O)(=O)c4ccc5ncc(*)nc5c4)cc3n2)cc1 (repeat unit) | 342.00
*C(=O)c1ccc2c(c1)C(=O)N(c1ccc(OCCOc3ccc(N4C(=O)c5ccc(*)cc5C4=O)cc3)cc1)C2=O (repeat unit) | 246.00
*=Nc1ccc(C(C)(C)c2ccc(C(C)(C)c3ccc(/N=C4/OC(=O)c5ccc(Oc6ccc7c(c6)C(=O)OC7=*)cc54)cc3)cc2)cc1 (repeat unit) | 249.00
*c1ccc(C(=O)OCCCCCCCCCOC(=O)c2ccc(-c3nnc(*)s3)cc2)cc1 (repeat unit) | 72.00
*c1ccc(-c2cc(CCCCCCCC)c(-c3ccc(-c4ccc(-c5sc(-c6ccc([Si](C)(C)[Si](C)(C)[Si](C)(C)[Si](*)(C)C)s6)cc5CCCCCCCC)s4)s3)s2)s1 (repeat unit) | 6.00
*/C(C)=C(/*)SCCCCCCCCCC (repeat unit) | 60.00
*c1ccc(Oc2ccc(C(=O)c3ccc(Oc4ccc(-c5nc6ccccc6n5-c5ccc(-n6c(*)nc7ccccc76)cc5)cc4)cc3)cc2)cc1 (repeat unit) | 242.00
*Oc1ccc(-c2ccc(Oc3ccc(C(=O)c4ccccc4-c4ccccc4C(=O)c4ccc(*)cc4)cc3)cc2)cc1 (repeat unit) | 193.00
*c1ccc(Sc2ccc(-n3c(=O)c4cc5c(=O)n(*)c(=O)c5cc4c3=O)cc2)cc1 (repeat unit) | 400.00
*/C=C/c1cc(OCCc2ccccc2)c(*)cc1OC (repeat unit) | 121.00
*Nc1cc(NC(=O)c2cccc(C(*)=O)c2)cc(C(=O)OCCOc2ccc(/C=C/C(=O)c3ccccc3)cc2)c1 (repeat unit) | 216.00
*c1ccc(OCCOCCOc2cccc(N3C(=O)c4ccc(Oc5ccc6c(c5)C(=O)N(*)C6=O)cc4C3=O)c2)cc1 (repeat unit) | 146.50
*CCCCCCOc1ccc(C(C)(C)c2ccc(O*)cc2)cc1 (repeat unit) | 36.00
*CC(*)(C)C(=O)OCCCCCCCCCC (repeat unit) [Poly(decyl methacrylate)] | -63.83 ± 1
*CC(CC)N(*)C(=O)CCCC (repeat unit) | 52.00
*NC(C)CCC(C)(C)CCCNC(=O)c1ccc(C(*)=O)cc1 (repeat unit) | 150.00
*CC(*)c1ccc([Si](C)(C)C)cc1 (repeat unit) | 136.00
*c1cc(OCCCCCCCCCCCCCCCC)cc(N2C(=O)c3ccc(Oc4ccc5c(c4)C(=O)N(*)C5=O)cc3C2=O)c1 (repeat unit) | 159.00
*CCCCCCNC(=O)C(CC)CC(CC)C(=O)N* (repeat unit) | 94.00

Structure (SMILES) | glass transition temperature [°C]
*CC(*)c1ccc(CCCCCCCCCCCC)cc1 (repeat unit) | -52.00
*Oc1ccc(OC(=O)c2cc(OCCCCCCCCCCCC)c(C(*)=O)cc2OCCCCCCCCCCCC)cc1-c1ccccc1 (repeat unit) | 96.00
*CCC(C)(C)CC(C)COC(=O)c1ccc(C(=O)O*)cc1 (repeat unit) | -9.00
*CCOC(=O)Nc1ccc(C)c(NC(=O)OCCOc2ccc(C3(c4ccc(O*)cc4)c4ccccc4-c4ccccc43)cc2)c1 (repeat unit) | 175.00
*Oc1c(C)cc(C(C)(C)c2cc(C)c(OC(=O)CCCCC(*)=O)c(C)c2)cc1C (repeat unit) | 93.00
*CC(=O)OC(=O)COc1ccc(C(C)(C)c2ccc(O*)cc2)cc1 (repeat unit) | 105.00
*CC(*)(C)C(=O)OCCCCOc1ccc(OC(=O)c2ccc(OC)c(Br)c2)cc1 (repeat unit) | 69.00
*c1ccc(C2(c3ccc(-c4cc(-c5ccccc5)c5cc(Oc6ccc7nc(*)cc(-c8ccccc8)c7c6)ccc5n4)cc3)c3ccccc3-c3ccccc32)cc1 (repeat unit) | 310.00
*O[Si](C)(C)c1ccc(-c2ccc([Si](*)(C)C)cc2)cc1 (repeat unit) | 67.00
*CC(F)(F)C(F)(F)C(F)(F)COC(=O)c1cc(OCCCCC)cc(C(=O)O*)c1 (repeat unit) | -30.00
*CC(*)C(=O)OC(C(F)(F)F)C(F)(F)F (repeat unit) | 42.30
*C(F)(F)C(*)(F)C(F)(F)C(F)(F)C(F)(F)C(F)(F)C(F)(F)F (repeat unit) | 232.50
*Oc1ccc(Oc2ccc(C(=O)c3cccc(C(=O)c4ccc(*)cc4)c3)cc2)cc1S(=O)(=O)O (repeat unit) | 195.00
*Oc1ccc(CC(NC(=O)Cc2ccc(OC(=O)COCC(*)=O)cc2)C(=O)OCC)cc1 (repeat unit) | 66.00
*Oc1ccc(NC(=O)c2cccc(C(=O)Nc3ccc(Oc4ccc(C5(c6ccc(*)cc6)CC6CCC5C6)cc4)cc3)c2)cc1 (repeat unit) | 256.00
*=Nc1ccc(/N=C(/C=C/C(=*)c2ccccc2)c2ccccc2)cc1 (repeat unit) | 157.00
*Oc1ccc(NC(=O)c2cc(NC(=O)c3ccc(OC(C)=O)cc3)cc(C(=O)Nc3ccc(Oc4ccc(C(C)(C)c5ccc(*)cc5)cc4)cc3)c2)cc1 (repeat unit) | 243.00
*CC(c1ccccc1)C1C(=O)N(CCCOc2ccc(-c3ccc(C#N)cc3)cc2)C(=O)C1* (repeat unit) | 130.00
*CCOCCOC(=O)c1ccc(-c2ccc(C(=O)O*)cc2)cc1 (repeat unit) | 50.00
*CC(O)COc1ccc(C(C)(C)c2ccc(OCC(O)COc3cccc(NC(=O)C(=O)Nc4cccc(O*)c4)c3)cc2)cc1 (repeat unit) | 119.00
*CCCNC(=O)CCCCC(=O)NCCCN(*)C (repeat unit) | 5.00
*CCc1cccc(*)c1 (repeat unit) | 9.00
*O[Si](C)(C)c1c(F)c(F)c(F)c([Si](*)(C)C)c1F (repeat unit) | -28.50

Structure (SMILES) | glass transition temperature [°C]
*CC(*)C(=O)Nc1ccc(C(=O)/C=C/c2ccc(Br)cc2)cc1 (repeat unit) | 64.00
*CC(*)(C)C(=O)OCCCCCOc1ccc(-c2ccc(C#N)cc2)cc1 (repeat unit) | 60.00
*Oc1cccc2ccc(Oc3ccc(NC(=O)c4ccc(Oc5ccc(C(C)(c6ccccc6)c6ccc(Oc7ccc(C(=O)Nc8ccc(*)cc8)cc7)cc6)cc5)cc4)cc3)cc12 (repeat unit) | 212.00
*NNC(=O)c1ccccc1C(=O)Nc1cccc(/C=C2\CCC/C(=C\c3cccc(NC(=O)c4ccccc4C(*)=O)c3)C2=O)c1 (repeat unit) | 195.00
*CCCCCCOC(=O)c1ccc(C(=O)O*)cc1 (repeat unit) | 13.00
*Oc1ccc(CC(NC(=O)CCc2ccc(OC(=O)CCCCCCC(*)=O)cc2)C(=O)OCCCCCC)cc1 (repeat unit) | 27.00
*Oc1ccc(C2(c3ccc(OC(*)=S)cc3)CCCC2)cc1 (repeat unit) | 79.00
*O[Si](*)(C)CCCCCCOc1ccc(C(=O)Oc2ccc(C(=O)Oc3ccc(C=C(C(=O)OCCCCCCCCC)C(=O)OCCCCCCCCC)cc3)cc2)cc1 (repeat unit) | -5.00
*Oc1cc(CCCCCCCCC)cc(OC(=O)c2cccc(C(*)=O)c2)c1 (repeat unit) | 41.50
*C(=O)Nc1ccc(Oc2cc(C(C)(C)C)c(Oc3ccc(NC(=O)c4ccc5c(c4)C(=O)N(c4ccc(Oc6ccc(C7(c8ccc(Oc9ccc(N%10C(=O)c%11ccc(*)cc%11C%10=O)cc9)cc8)CC8CC7C7CCCC87)cc6)cc4)C5=O)cc3)cc2C(C)(C)C)cc1 (repeat unit) | 290.00
*CC(*)(C)C(=O)OCc1ccccc1Cl (repeat unit) | 54.10
*c1ccc(-c2ccc(-c3ccc(-c4ccc(*)n4CCCCCCCCCCCC)s3)s2)s1 (repeat unit) | 52.00
*C(OC(F)(F)F)C(*)(F)F (repeat unit) | -10.00
*CC(*)c1ccc(C(=O)N(C)C)cc1 (repeat unit) | 125.00
*c1ccc2c(c1)C(=O)N(c1ccc(Oc3ccccc3Oc3ccc(N4C(=O)c5ccc(C(*)(C(F)(F)F)C(F)(F)F)cc5C4=O)cc3C(F)(F)F)c(C(F)(F)F)c1)C2=O (repeat unit) | 247.00
*c1ccc(Oc2ccc(C(c3ccc(Oc4ccc(-c5nnc(*)n5-c5ccc(C)cc5)cc4)cc3)(C(F)(F)F)C(F)(F)F)cc2)cc1 (repeat unit) | 213.00
*C(=O)c1ccc2c(c1)C(=O)N(c1ccc(-c3cc(C(C)(C)C)c(Oc4ccc(N5C(=O)c6ccc(*)cc6C5=O)cc4)c(C(C)(C)C)c3)cc1)C2=O (repeat unit) | 347.50
*CC(*)(C)C(N)=O (repeat unit) | 88.70
*CC(*)(C)C(=O)Oc1ccc(C(=O)Oc2ccc(C)cc2)cc1 (repeat unit) | 98.00
*Oc1ccc(C2(c3ccc(OC(*)=O)c(C)c3)CC3CCC2C3)cc1C (repeat unit) | 161.00
*Oc1ccc(S(=O)(=O)c2ccc(Oc3ccc(C4(c5ccc(*)cc5)c5ccccc5-c5ccccc54)cc3)cc2)cc1 (repeat unit) | 278.50
*c1ccc(-c2sc(-c3cc(SCCCCCCCC)c(*)s3)cc2SCCCCCCCC)cc1 (repeat unit) | 55.30
